One may read the IC50 as the point on the concentration scale where inhibition reaches its midpoint.

Where two headings read alike, the source gives them in different places. No end group written: not given here.

The test system of data set [1] is Leishmania donovani axenic amastigotes. Particulars: 50 μM miltefosine control; cited from earlier work. Here is the method: (§1) Axenic amastigotes were differentiated as described previously ([69]); briefly, transgenic L. donovani promastigotes expressing mCherry were differentiated by pH and temperature shifts. Amastigotes were seeded into 96-well plates at 5 × 10^6 cells/mL and incubated for 48 h in the presence of decreasing drug concentrations, starting at 20 μM, along with the appropriate solvent controls. Fluorescence was monitored (587-nm excitation/610-nm emission) over 48 h using a FlexStation 3 benchtop multimode reader (Molecular Devices). At 50 μM miltefosine, 99% parasite inhibition is observed. Thus, chan ...

Data set [2] has as its system Leishmania donovani intracellular amastigotes. Particulars: 50 μM miltefosine control; cited from earlier work. Here is the method:
Transgenic L. donovani promastigotes constitutively expressing mCherry and THP-1 macrophages were cultured as described above. Metacyclic promastigotes were isolated using a Ficoll-400 density gradient as previously described ([70]). Differentiated macrophages were exposed to parasites for 4 h at a multiplicity of infection (MOI) of 10 parasites:1 macrophage. After 4 h, the macrophages were washed thoroughly with 1× phosphate-buffered saline (PBS) (pH 7.4) and incubated overnight at 37°C with 5% CO2. Macrophages were transferred to 96-well plates at 5 × 10^6 cells/mL and exposed to antimicrobi ...

Data set [3] relates to Leishmania donovani axenic amastigotes. Particulars: 48 h. Here is the method: We utilized a previously developed high-throughput screening assay using transgenic axenic amastigotes expressing a red fluorescent protein, mCherry. Changes in mCherry fluorescence were normalized to 50 μM miltefosine in order to quantify parasite inhibition ([52]). In total, 5 scaffold 25-mer peptides and 475 synthetic 25-mer peptide variants were screened (Fig. 1). […] The assay was repeated, and the average percent parasite killing was determined.
Axenic amastigotes were differentiated as described previously ([69]).
as §1, with “[…] Thus, changes in mCherry fluorescence were normalized to the” for “At”, “miltefosine control in order to quantify” for “miltefosine, 99%”, “inhibition. Each assay was performed in triplicate. The IC50 values were calculated by nonlinear regression analysis using GraphPad Prism 9.0 for Windows.” for “inhibition is observed. Thus, chan ...”

The test system of a further data set is THP-1 macrophages. Briefly: Cytotoxicity against THP-1 macrophages (CellTiter-Blue). It counts as cell-based, human. Here is the method: THP-1 (human acute monocytic leukemia-derived) host macrophages were cultured in RPMI 1640 supplemented with 10% FCS and a penicillin-streptomycin antibiotic solution (10,000 U/mL penicillin, 10,000 μg/mL streptomycin) at 37°C with 5% CO2. THP-1 cells were incubated with 0.25 μM phorbol 12-myristate […] (PMA) for 48 h to differentiate into mature macrophages. Differentiated macrophages were seeded into 96-well plates at 5 × 10^6 cells/mL and incubated for 48 h in the presence of 20 μM antimicrobial peptides along with the appropriate solvent controls. Cell viability assays were conducted using CellTiter-Blue (Promega), based on resazurin reduction. After the 48-h incubation period, CellTiter-Blue reagent was added to cells for 4 h at 37°C, and fluorescence was measured (555-nm excitation/580-nm emission) using a FlexStation 3 benchtop multimode reader (Molecular Devices). Each assay was performed in triplicate. The CC50 values were calculated by nonlinear regression analysis using GraphPad Prism 9.0 for Windows.
For orientation: Resazurin is reduced to fluorescent resorufin, in cell work by metabolically active cells.

In a further data set the test system is axenic amastigotes. Particulars: previous data used to set the 20 μM screening concentration; read-out: IC50 of enterocin AS-48 (previous data); cited from earlier work. The procedure: We utilized a previously developed high-throughput screening assay using transgenic axenic amastigotes expressing a red fluorescent protein, mCherry. Changes in mCherry fluorescence were normalized to 50 μM miltefosine in order to quantify parasite inhibition ([52]). In total, 5 scaffold 25-mer peptides and 475 synthetic 25-mer peptide variants were screened (Fig. 1). […] The assa ... || In this work, we determined the efficacy and cytotoxicity of 480 synthetic, minimal AS-48 bacteriocin homolog peptide variants against L. donovani using phenotypic in vitro fluorometric assays. […] This study illustrates the successful use of rational design using the minimal domain of naturally occurring bacteriocin scaffolds to increase leishmanicidal activity.

The test system of data set [4] is Leishmania pifanoi axenic amastigotes. Particulars: full-length enterocin AS-48; read-out: IC50 against Leishmania pifanoi axenic amastigotes; cited from earlier work. The text has this: Enterocin AS-48, a class I bacteriocin, has been well characterized and is currently being investigated for use as an antimicrobial drug against a large variety of infectious disease agents ([45]). Enterocin AS-48 is a ribosomally produced, circularized bacteriocin encoded by Enterococcus faecalis subsp. liquefaciens strain S-48, which undergoes head-to-tail macrocyclization as a posttranslational modification ([46]). Efforts to engineer synthetic enterocin AS-48 have been made in order to improve mass production and bioactivity. Previously, segments of the bacteriocin have undergone α-ketoaci ...

The subject of data set [5] is intracellular amastigotes. Conditions: previously shown; cited from earlier work. From the text:
As Leishmania spp. are obligate intracellular parasites, intracellular amastigote IC50 value determination is necessary to understand the clinical relevance of the 10 antileishmanial peptide drug candidates.

Where [6] appears, read: read-out: Axenic amastigotes Mean IC50 ± SD, L. donovani mCherry axenic amastigotes, fluorescence normalized to 50 μM miltefosine, highest concentration 20 μM, mean of three replicates.

Turning to `CCCCCCCCCCCCCCCCOP(=O)([O-])OCC[N+](C)(C)C` [miltefosine], in data set [1], the “Parasite inhibition (axenic amastigotes)” value is listed as 99%. Further, in data set [2], the Intracellular parasite inhibition was 99%.

For “AWKETIRQFLKKTIQEKGKRAKIAW [Syn-larvacin-37]”, in data set [3] (setting [6]), the IC50 amounted to 290 nM. Moreover, the “THP-1 macrophage CC50” value in the data set on THP-1 macrophages was below 20 µM.

Take “AWKETIRQYLKNEIKKKWRKAVIAW [Syn-safencin-89]”: the IC50 in data set [3] (setting [6]) came out at 1050 nM. Further, the “THP-1 macrophage CC50” value with THP-1 macrophages was below 20 µM.

For the compound “AWKETIRQYLKNKIKKKGRKAVIAW [Syn-safencin-19]”, in data set [3] (setting [6]), the IC50 came to 380 nM. Further, in the data set with THP-1 macrophages, the “THP-1 macrophage CC50” value was below 20 µM.

“AWKETIRQYLKNKIKKKWRKAVIAW [Syn-safencin-91]”: in data set [3] (setting [6]), the IC50 was 600 nM. For the same compound, in the data set on THP-1 macrophages, the “THP-1 macrophage CC50” value was below 20 µM.

For the compound “AWKKTIRQYLKNEIKKKGRKAVIAW [Syn-safencin-18]”, in data set [3] (setting [6]), the IC50 is 7960 nM. Further, in the data set with THP-1 macrophages, the “THP-1 macrophage CC50” value was below 20 µM.

As for “AWKKTIRQYLKNEIKKKWRKAVIAW [Syn-safencin-90]”, the IC50 in data set [3] (setting [6]) was 2600 nM. Moreover, the “THP-1 macrophage CC50” value with THP-1 macrophages is below 20 µM.

Turning to “AWKKTIRQYLKNKIKKKWRKAVIAW [Syn-safencin-92]”, the IC50 in data set [3] (setting [6]) worked out at 900 nM. Further, the “THP-1 macrophage CC50” value in the data set on THP-1 macrophages is below 20 µM.

In the case of “AWTEKIFNRLKKTINEGKKIAKRAW [Syn-larvacin-40]”, in data set [3] (setting [6]), the IC50 turned out to be 8350 nM. For the same compound, the “THP-1 macrophage CC50” value in the data set on THP-1 macrophages was below 20 µM.

On to “AWTEKIFQRLKKTIQEGKKIAKRAW [Syn-larvacin-39]”, for which the IC50 in data set [3] (setting [6]) amounted to 1430 nM. The “THP-1 macrophage CC50” value in the data set on THP-1 macrophages is below 20 µM.

Regarding “WGKETIFQRLKKKIQEKGKRATIAW [Syn-larvacin-11]”, in data set [3] (setting [6]), the IC50 was 660 nM. Besides, the “THP-1 macrophage CC50” value with THP-1 macrophages was “below 20 μM”.

For the compound “WGKETIRKYLKNEIKKKGRKAVIAW [Syn-safencin-14]”, in data set [3] (setting [6]), the IC50 stood at 670 nM. Further, the “THP-1 macrophage CC50” value in the data set with THP-1 macrophages was “below 20 μM”.

In data set [3], “WGKETIRQFLKKKIQEKGKIATRAW [Syn-larvacin 14]” came in with an IC50 of 3890 ± 100 nM. Besides, the “THP-1 macrophage CC50” value in the data set with THP-1 macrophages and in the data set on THP-1 macrophages (48 h) was above 20 µM throughout.

For “WGKETIRQKLKNEIKKKGRKAVIAW [Syn-safencin-15]”, the IC50 in data set [3] (setting [6]) stood at 1710 nM. In the data set on THP-1 macrophages, the “THP-1 macrophage CC50” value is “below 20 μM”.

For the compound “WGKETIRQYLKNKIKKKGRKAVIAW [Syn-safencin-11]”, in data set [3] (setting [6]), the IC50 is 12200 nM. Further, in the data set on THP-1 macrophages, the “THP-1 macrophage CC50” value was “below 20 μM”.

Consider “WGKKTIRQYLKNEIKKKGRKAVIAW [Syn-safencin-10]”, for which the IC50 in data set [3] (setting [6]) is 2970 nM. In the data set with THP-1 macrophages, the “THP-1 macrophage CC50” value was “below 20 μM”.

As to “WGTEKIRQFLKKKIQEKGKRATIAW [Syn-larvacin-10]”, the IC50 in data set [3] (setting [6]) is 270 nM. Besides, the “THP-1 macrophage CC50” value in the data set on THP-1 macrophages is recorded as “below 20 μM”.

enterocin AS-48: the IC50 in the data set with axenic amastigotes was around 20 µM; in data set [4], 10.2 ± 1.2 µM. In data set [5], the “Activity against intracellular amastigotes” value is listed as “limited activity”.
